From patent US10202412B2, “β-D-2′-deoxy-2′-substituted-4′-substituted-2-substituted-N6-substituted-6-aminopurinenucleotides for the treatment of paramyxovirus and orthomyxovirus infections” (Atea Pharmaceuticals, Inc., priority 2016, dated 2019)

Experiments:
[1] = tested on: Respiratory syncytial virus (RSV) type A, strain A2 (ATCC VR-1540); test: dNHBE assay: RSV virus yield reduction (EC90); format: cell-based; settings: human respiratory syncytial virus, RSV (A2) in dNHBE cells; concentration reducing virus yield by 1 log10; mean of at least two experiments
Procedure: (§1) Differentiated normal human bronchial epithelial (dNHBE) cells were grown on 6 mm mesh disks in transwell inserts to approximately 1.2×10^6 cells/disk and disks were transferred to individual wells of a 6-well plate. 1 mL of proprietary culture medium was added to the basolateral side of the cells and the apical side was exposed to a humidified 95% air/5% CO2 environment. Cells were cultured at 37° C. for one day and then the mucin layer was removed from the apical side of the cells by repeated (3×) washing with 500 μL 30 mM HEPES buffered saline solution and culture medium on the basal side was replenished.
Respiratory syncytial virus (RSV) type A, strain A2 (ATCC VR-1540), previously passaged in MA-104 cells to make working stock cultures, was diluted 1/10 in medium before infection, using a multiplicity of infection (MOI) of ≤0.03 CCID50 per cell.
(§2) Various concentrations of test compounds in medium were applied in duplicate to the apical (140 μL) and basal sides (1 mL) for a 1 hour pre-treatment, followed by addition of 140 μL of virus inoculum to each cell insert on the apical side. The viral inoculum and treatments were removed after 2 hours. Control cells were treated with placebo (culture medium only). Following infection, the apical medium was removed and the basal side was replaced with fresh compound in medium. The cells were maintained at the air-liquid interface, and cell culture medium on the basal side was replaced daily with fresh medium containing test compound. After 4 days, the liquid was removed from the basal side and discarded and virus released into the apical compartment was harvested by the addition of 500 μL of culture medium. The medium was thoroughly mixed, then removed, diluted 1:1 with 40% sucrose and stored at ≤−80° C.
To determine the virus titer from each treated cell culture, MA-104 cells were seeded in 96-well plates and grown overnight (37° C.) to confluence. Samples containing virus were diluted in 10-fold increments in infection medium and 200 μL of each dilution transferred into respective wells of a 96-well microtiter plate. Four microwells were used for each dilution to determine 50% viral endpoints. After 7 days of incubation, each well was scored positive for virus if any cytopathic effect was observed as compared with the uninfected control. The virus dose that was able to infect 50% of the cell cultures (CCID50 per 0.1 mL) was calculated by the Reed-Muench method. This was repeated in duplicate for each test sample, so that values reported are an average of 2 independent CCID5o determinations. Untreated, uninfected cell controls were tested as negative controls. Statistical differences in the titers were evaluated with a one-way analysis of variance (ANOVA) followed by Dunnett's multiple comparisons test compared with the untreated virus controls.
(§3) Concentrations of test compounds that reduced virus yield by 1 log10 (90% effective concentration; EC90) were calculated by regression analysis. The reported EC90 value is the mean of at least two experiments. Potential toxicity of the test compounds was evaluated microscopically.

[2] = tested on: Differentiated normal human bronchial epithelial (dNHBE) cells; test: dNHBE assay: toxicity evaluated microscopically; format: cell-based; set-up: unit not given here
Procedure: as §1, §2, §3

Row | Structure (SMILES) | EC90 [1] [nM] | Visual toxicity [2]
1 | CNc1nc(N)nc2c1ncn2[C@@H]1O[C@](CCl)(CO[P@@](=O)(N[C@@H](C)C(=O)OC(C)C)Oc2ccccc2)[C@@H](O)[C@@H]1F [AL, (S)-Isopropyl 2-(((S)-(((2R,3R,4S,5R)-5-(2-amino-6-(methylamino)-9H-purin-9-yl)-2-(chloromethyl)-4-fluoro-3-hydroxytetrahydrofuran-2-yl)methoxy)(phenoxy)phosphoryl)amino) propanoate] | > 1600 | >1.6
2 | CNc1nc(NC)c2ncn([C@@H]3O[C@](C)(CO[P@@](=O)(N[C@@H](C)C(=O)OC(C)C)Oc4ccccc4)[C@@H](O)[C@H]3F)c2n1 [AU, (S)-Isopropyl 2-(((S)-(((2R,3R,4R,5R)-5-(2,6-bis(methylamino)-9H-purin-9-yl)-4-fluoro-3-hydroxy-2-methyltetrahydrofuran-2-yl)methoxy)(phenoxy)phosphoryl)amino) propanoate] | > 1700 | >1.7
3 | CC[C@]1(COP(=O)(N[C@@H](C)C(=O)OC(C)C)Oc2ccccc2)O[C@@H](n2cnc3c(NC)nc(N)nc32)[C@H](F)[C@@H]1O (stereo partly drawn) [Compound R, (2S)-Isopropyl 2-(((((2R,3R,4R,5R)-5-(2-amino-6-(methylamino)-9H-purin-9-yl)-2-ethyl-4-fluoro-3-hydroxytetrahydrofuran-2-yl)methoxy)(phenoxy)-phosphoryl)amino) propanoate] | 2300 | >167
4 | CC(C)OC(=O)[C@H](C)N[P@](=O)(OC[C@@]1(C)O[C@@H](n2cnc3c(N(C)C)nc(F)nc32)[C@H](F)[C@@H]1O)Oc1ccccc1 [Compound AD, (S)-Isopropyl 2-(((S)-(((2R,3R,4R,5R)-5-(6-(dimethylamino)-2-fluoro-9H-purin-9-yl)-4-fluoro-3-hydroxy-2-methyltetrahydrofuran-2-yl)methoxy)(phenoxy)phosphoryl)amino) propanoate] | 8400 | >16
5 | CC(C)OC(=O)[C@H](C)N[P@](=O)(OC[C@@]1(C)O[C@@H](n2cnc3c(N(C)C)nc(Cl)nc32)[C@H](F)[C@@H]1O)Oc1ccccc1 [Compound AE, (S)-Isopropyl 2-(((S)-(((2R,3R,4R,5R)-5-(6-(dimethylamino)-2-chloro-9H-purin-9-yl)-4-fluoro-3-hydroxy-2-methyltetrahydrofuran-2-yl)methoxy)(phenoxy)phosphoryl)amino) propanoate] | 9300 | >16
6 | CNc1nc(OC)nc2c1ncn2[C@@H]1O[C@](CCl)(CO[P@@](=O)(N[C@@H](C)C(=O)OC(C)C)Oc2ccccc2)[C@@H](O)[C@H]1F [AN, (S)-Isopropyl 2-(((S)-(((2R,3R,4R,5R)-5-(6-(methylamino)-2-methoxy-9H-purin-9-yl)-2-(chloromethyl)-4-fluoro-3-hydroxytetrahydrofuran-2-yl)methoxy)(phenoxy)phosphoryl)amino) propanoate] | > 1600 | >1.6
7 | CNc1nc(N)nc2c1ncn2[C@@H]1O[C@](C)(CO[P@@](=O)(N[C@@H](C)C(=O)OC(C)C)Oc2ccccc2)[C@@H](O)[C@H]1F [Compound AC] | 74 | >1.4
8 | CNc1nc(N)nc2c1ncn2[C@@H]1O[C@@](CO)(CCl)[C@@H](O)[C@H]1F [Compound M, (2R,3R,4R,5R)-5-(2-Amino-6-(methylamino)-9H-purin-9-yl)-2-(chloromethyl)-4-fluoro-2-(hydroxymethyl)tetrahydrofuran-3-ol] | 2900 | >288
9 | CNc1nc(N)nc2c1ncn2[C@@H]1O[C@](CF)(CO[P@@](=O)(N[C@@H](C)C(=O)OC(C)C)Oc2ccccc2)[C@@H](O)[C@@H]1F [AT, (S)-Isopropyl 2-(((S)-(((2R,3R,4S,5R)-5-(2-amino-6-(methylamino)-9H-purin-9-yl)-4-fluoro-2-(fluoromethyl)-3-hydroxytetrahydrofuran-2-yl)methoxy)(phenoxy)phosphoryl)amino) propanoate] | 180 | >1.6
10 | CNc1nc(F)nc2c1ncn2[C@@H]1O[C@](CCl)(CO[P@@](=O)(N[C@@H](C)C(=O)OC(C)C)Oc2ccccc2)[C@@H](O)[C@H]1F [AJ, (S)-Isopropyl 2-(((S)-(((2R,3R,4R,5R)-5-(6-(methylamino)-2-fluoro-9H-purin-9-yl)-2-(chloromethyl)-4-fluoro-3-hydroxytetrahydrofuran-2-yl)methoxy)(phenoxy)phosphoryl)amino) propanoate] | > 1600 | >1.6
11 | CNc1nc(OC)nc2c1ncn2[C@@H]1O[C@](C)(CO[P@@](=O)(N[C@@H](C)C(=O)OC(C)C)Oc2ccccc2)[C@@H](O)[C@H]1F [AM, (S)-Isopropyl 2-(((S)-(((2R,3R,4R,5R)-5-(6-(methylamino)-2-methoxy-9H-purin-9-yl)-4-fluoro-3-hydroxy-2-methyltetrahydrofuran-2-yl)methoxy)(phenoxy)phosphoryl)amino) propanoate] | 1100 | >1.7
12 | CNc1nc(F)nc2c1ncn2[C@@H]1O[C@](C)(CO[P@@](=O)(N[C@@H](C)C(=O)OC(C)C)Oc2ccccc2)[C@@H](O)[C@@H]1F [AP, (S)-Isopropyl 2-(((S)-(((2R,3R,4S,5R)-5-(6-(methylamino)-2-fluoro-9H-purin-9-yl)-4-fluoro-3-hydroxy-2-methyltetrahydrofuran-2-yl)methoxy)(phenoxy)phosphoryl)amino) propanoate] | 34 | >1.7
13 | CNc1nc(Cl)nc2c1ncn2[C@@H]1O[C@](C)(CO[P@@](=O)(N[C@@H](C)C(=O)OC(C)C)Oc2ccccc2)[C@@H](O)[C@H]1F [AR, (S)-Isopropyl 2-(((S)-(((2R,3R,4R,5R)-5-(6-(methylamino)-2-chloro-9H-purin-9-yl)-4-fluoro-3-hydroxy-2-methyltetrahydrofuran-2-yl)methoxy)(phenoxy)phosphoryl)amino) propanoate] | 1000 | >1.6
14 | CNc1nc(N)nc2c1ncn2[C@@H]1O[C@](C)(CO[P@@](=O)(N[C@@H](C)C(=O)OC(C)C)Oc2ccccc2)[C@@H](O)[C@@H]1F [AK, (S)-Isopropyl 2-(((S)-(((2R,3R,4S,5R)-5-(2-amino-6-(methylamino)-9H-purin-9-yl)-4-fluoro-3-hydroxy-2-methyltetrahydrofuran-2-yl)methoxy)(phenoxy)phosphoryl)amino) propanoate] | 1100 | >1.7
15 | CC(C)OC(=O)[C@H](C)N[P@](=O)(OC[C@@]1(CCl)O[C@@H](n2cnc3c(N(C)C)nc(N)nc32)[C@H](F)[C@@H]1O)Oc1ccccc1 [AG, (S)-Isopropyl 2-(((S)-(((2R,3R,4R,5R)-5-(2-amino-6-(dimethylamino)-9H-purin-9-yl)-2-(chloromethyl)-4-fluoro-3-hydroxytetrahydrofuran-2-yl)methoxy)(phenoxy)phosphoryl)amino) propanoate] | < 160 | >15
16 | CC(C)OC(=O)[C@H](C)N[P@](=O)(OC[C@@]1(C)O[C@@H](n2cnc3c(NC4CC4)nc(N)nc32)[C@H](F)[C@@H]1O)Oc1ccccc1 [AV, (S)-Isopropyl 2-(((S)-(((2R,3R,4R,5R)-5-(2-amino-6-(cyclopropylamino)-9H-purin-9-yl)-4-fluoro-3-hydroxy-2-methyltetrahydrofuran-2-yl)methoxy)(phenoxy)phosphoryl)amino) propanoate] | 99 | >1.6
17 | CNc1nc(N)nc2c1ncn2[C@@H]1O[C@](CCl)(COP(=O)(N[C@@H](C)C(=O)OC(C)C)Oc2ccccc2)[C@@H](O)[C@H]1F (stereo partly drawn) [Compound N, (2S)-Isopropyl 2-(((((2R,3R,4R,5R)-5-(2-amino-6-(methylamino)-9H-purin-9-yl)-2-(chloromethyl)-4-fluoro-3-hydroxytetrahydrofuran-2-yl)methoxy)(phenoxy)-phosphoryl)amino)propanoate] | 830 | >162
18 | CC[C@]1(CO)O[C@@H](n2cnc3c(NC)nc(N)nc32)[C@H](F)[C@@H]1O [Compound Q, (2R,3R,4R,5R)-5-(2-Amino-6-(methylamino)-9H-purin-9-yl)-2-ethyl-4-fluoro-2-(hydroxymethyl)tetrahydrofuran-3-ol] | 7300 | >306
19 | CC(C)OC(=O)[C@H](C)N[P@](=O)(OC[C@@]1(C)O[C@@H](n2cnc3c(N(C)C)nc(N)nc32)[C@H](F)[C@@H]1O)Oc1ccccc1 [AA] | 3500 | >167
